Experiments:
frog = test: Evaluated for relative potency in stimulating melanosome dispersion against Frog skin melanophores (Rana pipiens); format: functional
lizard = test: Evaluated for relative potency in stimulating melanosome dispersion against Lizard skin (Anolis carolinensis).; format: functional

Compound	Relative potency (frog)	Relative potency (lizard)
CSCC[C@H](NC(C)=O)C(=O)N[C@@H](CCC(=O)O)C(=O)N[C@@H](Cc1c[nH]cn1)C(=O)N[C@@H](Cc1ccccc1)C(=O)N[C@@H](CCCN=C(N)N)C(=O)N[C@@H](Cc1c[nH]c2ccccc12)C(=O)NCC(N)=O	0.0006	0.02
CC(=O)N[C@@H](CO)C(=O)N[C@@H](Cc1ccc(O)cc1)C(=O)N[C@@H](CO)C(=O)N[C@@H]1CSSC[C@H](C(=O)N[C@H](CCCCN)C(=O)N2CCC[C@@H]2C(=O)N[C@@H](C(N)=O)C(C)C)NC(=O)[C@@H](Cc2c[nH]c3ccccc23)NC(=O)[C@H](CCCN=C(N)N)NC(=O)[C@@H](Cc2ccccc2)NC(=O)[C@H](Cc2c[nH]cn2)NC(=O)[C@@H](CCC(=O)O)NC1=O	10000	32
CC(=O)N[C@@H]1CSSC[C@H](C(=O)N[C@H](CCCCN)C(=O)N2CCC[C@@H]2C(=O)N[C@@H](C(N)=O)C(C)C)NC(=O)[C@@H](Cc2c[nH]c3ccccc23)NC(=O)[C@H](CCCN=C(N)N)NC(=O)[C@@H](Cc2ccccc2)NC(=O)[C@H](Cc2c[nH]cn2)NC(=O)[C@@H](CCC(=O)O)NC1=O	10000	1.6
CC(=O)N[C@@H]1CSSC[C@H](C(N)=O)NC(=O)[C@@H](Cc2c[nH]c3ccccc23)NC(=O)[C@H](CCCN=C(N)N)NC(=O)[C@@H](Cc2ccccc2)NC(=O)[C@H](Cc2c[nH]cn2)NC(=O)[C@@H](CCC(=O)O)NC1=O	0.07	0.003

— ChEMBL document CHEMBL1122427, “Structure-activity studies of highly potent cyclic [Cys4,Cys10]Melanotropin analogues” (J Med Chem, 1983)
